{
  "source": "patent EP1124847B1",
  "about": "“LHRH ANALOGUES FOR THE TREATMENT OF OSTEOPOROSIS” (Ferring B.V., priority 1998, dated 2004)",
  "assay": "Serum calcium in the ovariectomised rat (colorimetric assay, day 28)",
  "format": "in vivo, Sprague Dawley rats",
  "conditions": "ovariectomised rats, 80µg/kg daily for 28days",
  "experimental": "• (a) Female adult (8 weeks old, 200-215g) Sprague Dawley rats were bilaterally ovariectomised (OVX). Animals were kept for 4 weeks […] before commencing treatment. -Purina rat chow (1.00% calcium, 0.61% phosphorous) and water were provided ad libitum. Each study consisted of 6 weight-matched groups (n = 8/group). • (b) Treatment started 4 weeks post-OVX. After 4 weeks, a baseline control OVX group was sacrificed (Group A). The remaining groups were injected once a day with vehicle (Group B), 1µg/kg body weight (Group C), 10µg/kg body weight (Group D), 100µg/kg body weight (Group E) of GnRH-II, and 80µg/kg body weight (Group F) of hPTH(1-34). • (c) All rats were weighed every fourth day and dosages adjusted for 50g increase in mean group weight. Rats were given alternate subcutaneous injections ofcalcein (30mg/kg) or tetracyclin (30mg/kg) in 2% sodium bicarbonate-saline, respectively to label mineralization surfaces on days 10, 19 and 26, following treatment with drug. Bone mineral density was assessed by dual energy x-ray absorptometry-DEXA). On day 28 serum calcium levels were determined by colorimetric assay using a commercial kit. • (d) Success of OVX was confirmed at necropsy by failure to detect ovarian tissue and by observation of marked atrophy of the uterine horns. Both legs were disarticulated at the hip. […]",
  "data": [
    {"substance": "PTH: Parathyroid hormone, hPTH(1-34), 80µg/kg comparison group (Group F) (SVSEIQLMHNLGKHLNSMERVEWLRKKLQDVHNF; Parathyroid hormone; UniProt P01270 32-65, looked up, fragment)", "values": [
      {"measurement": "serum calcium", "value": "pronounced hypercalcemia"}
    ]}
  ]
}
